Here are results for 13 compounds from patent publication US8372176B2, “Metal complexes comprising a ligand derived from 2-aryl-2-hydroxyacetic acid and a divalent or trivalent metal cation, and their use” (Clariant Specialty Fine Chemicals (France), priority 2006, dated 2013).

Data set [1] is described as follows: Dissolution of FeCl3 with ligand in aqueous phase at neutral or basic pH; Fe in filtrate by ICP-OES. The class given is physicochemical. On the procedure:
(§1) The invention is illustrated without implied limitation by the following examples, in which the amounts of metals in solution were measured by ICP-OES (Inductively Coupled Plasma-Optical Emission Spectroscopy).
(§2) In the examples which follow, the term “theoretical % by weight of metal in solution” is understood to mean the ratio, expressed as percentage, of the total weight of metal initially introduced into the reaction medium to the weight of the filtrate recovered and analysed.
(§3) 4.92 g (0.025 mol) of OHMNa are dissolved in 19.17 ml of water. 20.27 g of an aqueous solution comprising 6.76 g of FeCl3 hexahydrate (0.025 mol) are added over 15 min while maintaining the temperature of the reaction medium at approximately 20° C. The pH of the solution is adjusted to 7 by addition of a 50% by weight aqueous sodium hydroxide solution (5.87 g). The mixture is subsequently stirred at ambient temperature for 24 h. After filtering and washing with water, 59.9 g of a solution with a dark brown-red colour are recovered.
8.11 g of FeCl3 hexahydrate are dissolved in 12 ml of water. The pH is adjusted to 7 by addition of a 50% by weight aqueous sodium hydroxide solution. After filtering and washing with water, less than 10 ppm of Fe are measured in the filtrate.
2.05 g (0.01 mol) of 5-chloro-2-hydroxymandelic acid are suspended in 15 ml of water. 0.8 g of 50% by weight sodium hydroxide solution (0.01 mol) is added in order to obtain a solution. 17.7 g of an aqueous solution comprising 2.7 g of FeCl3 hexahydrate (0.01 mol) are added over 15 min while maintaining the temperature of the reaction medium at approximately 20° C. The pH of the solution is adjusted to 7 by addition of 2.4 g of a 50% by weight aqueous sodium hydroxide solution. The mixture is subsequently stirred at ambient temperature for 24 h. After filtering, 35.1 g of a solution with a dark brown-red colour are recovered.
The procedure of Example 1 or 2 is repeated but using, according to the invention, the ligands B, C, D and E of formula (I), the structures of which are described in Table 1 below, and varying the ligand/metal molar ratios, if appropriate.
The procedure of Example 2 is repeated by using the compounds G, H, I and J as ligands, the structures of which are described in Table 4 below, and varying the ligand/metal molar ratios, if necessary.
The procedure described in Example 1 is repeated but adjusting the pH of the solution to 6, 7, 9, 10 and 12.
A solution composed of 40 g of water and of 12.97 g of FeCl3 hexahydrate (0.048 mol) is added over 15 min to 43.5 g of an aqueous solution comprising 10.2 g of OHM.2Na (0.048 mol) while maintaining the temperature of the reaction medium at approximately 20° C. The pH of the solution is adjusted to 7 by addition of a 50% by weight aqueous sodium hydroxide solution (5.1 g). The mixture is subsequently stirred at ambient temperature for 5 weeks without specific protection with regard to light. After filtering, 80 g of a solution with a dark brown-red colour are recovered.
1.98 g (0.01 mol) of OHMNa are dissolved in 8 ml of water.
12.7 g of an aqueous solution comprising 2.7 g of FeCl3 hexahydrate (0.01 mol) are added over 15 min while maintaining the temperature of the reaction medium at approximately 20° C. The pH of the solution is adjusted to 7 by addition of 2.3 g of a 50% by weight aqueous sodium hydroxide solution. A suspension of 1.0 g (0.01 mol) of CaCO3 in 15 g of water is subsequently added. A few drops of 37% HCl are added to adjust the pH to 7. The mixture is subsequently stirred at ambient temperature for 24 hours. After filtering, 35.0 g of a solution with a dark brown-red colour are recovered.

The nature of data set [2]: Dissolution of Mg(II) cations with OHM.2Na at pH 12. The class given is physicochemical. To be noted: 0.05 mol OHM.2Na. On the procedure: To an aqueous solution (60 g) containing 0.05 mol of OHM.2Na, are added 9.9 g of an aqueous solution containing 0.025 mole of magnesium chloride (MgCl2). The pH is set at 12 with 1 g of an aqueous solution of HCl 1N. […] Without the OHM.2Na, the magnesium precipitate at pH 12 as a white solid (Mg(OH)2).
To an aqueous solution (60 g) containing 0.05 mol of OHM.2Na, are added 19.8 g of an aqueous solution containing 0.05 mole of magnesium chloride (MgCl2). The pH is set at 12 with 2.6 g of an aqueous solution of NaOH 30%. […] Without the OHM.2Na, the magnesium precipitate at pH 12 as a white solid (Mg(OH)2).

The nature of data set [3]: Dissolution of Al(III) cations with OHMNa; metal in filtrate by ICP-OES. It counts as physicochemical. On the procedure: as §1, §2, §3
(§4) The procedure of Example 1 is repeated but substituting FeCl3 by AlCl3, CrCl3.6H2O and Cu(OAc)2.H2O respectively.

Data set [4] in a line: Dissolution of Cr(III) cations with OHMNa; metal in filtrate by ICP-OES. The class given is physicochemical. On the procedure: as §1, §2, §3, §4
Data set [5] is described as follows: Dissolution of Cu(II) cations with OHMNa; metal in filtrate by ICP-OES. The class given is physicochemical. On the procedure: as §1, §2, §3, §4
A short description of data set [6]: Iron content of the dried powder by ICP-OES. It counts as physicochemical. Conditions: ICP-OES measurement on powder. On the procedure:
as §1
The dark brown-red solution obtained in Example 1 is concentrated by distillation of water. The residue is dried in an oven at 50° C. for 48 h. A red-brown powder is obtained which comprises 12% by weight of iron by ICP-OES measurement.
A measurement on a powder formed of [Fe(o,o-EDDHA)Na] chelate available commercially gives only 7.8% by weight of iron.

For data set [7] the following is noted: background statement, on average; cited from earlier work.
The conditions of data set [8]: commercial chelates, background statement; cited from earlier work.
Setting [9] is: pH 7, stirred 24 h at ambient temperature, filtrate.
Setting [10] is: pH 7, total Fe introduced / weight of filtrate.
Where [11] appears, read: Table 6, comparative ligands, pH 7.
Where [12] appears, read: Table 6, pH 7, ligand/iron molar ratio of 2/1.

SMILES strings stand for the structures.

Consider `O=C(O)C(O)c1cc(Cl)ccc1O` (stereo not shown) [5-chloro-2-hydroxymandelic acid], for which, in data set [1] (setting [9]), the “% by weight of Fe in solution measured” value is recorded as 1.3 % by weight. For the same compound, the “Theoretical % by weight of Fe in solution” value in data set [1] (setting [10]) is reported as 1.59 % by weight.

For the compound `O=C([O-])C(O)c1ccc(O)cc1.[Na+]` (stereo not shown) [Example 3], in data set [1] (Table 3, ligands B-E, pH 7), the “% by weight measured (Fe in solution)” value is 1.1 % by weight and the “Theoretical % by weight of Fe in solution” value worked out at 1.47 % by weight.

`CCOc1cc(C(O)C(=O)O)ccc1O` (stereo not shown) [Example 4]: in data set [1] (Table 3, ligands B-E, pH 7), the “% by weight measured (Fe in solution)” value came to 1.5 % by weight and the “Theoretical % by weight of Fe in solution” value was determined as 1.83 % by weight.

Turning to `O=C(O)C(O)c1ccc(O)c(O)c1` (stereo not shown) [Example 5], in data set [1] (Table 3, ligands B-E, pH 7), the “% by weight measured (Fe in solution)” value amounted to 1.2 % by weight and the “Theoretical % by weight of Fe in solution” value turned out to be 1.49 % by weight.

On to `O=C(O)C(O)c1cc(F)ccc1O` (stereo not shown) [Example 6], for which, in data set [1] (Table 3, ligands B-E, pH 7), the “% by weight measured (Fe in solution)” value is 1.4 % by weight and the “Theoretical % by weight of Fe in solution” value stood at 1.46 % by weight.

For the compound `O=C([O-])C(O)c1ccccc1[O-].[Na+].[Na+]` (stereo not shown) [OHM.2Na, disodium salt of 2-(2-hydroxyphenyl)-2-hydroxyacetic acid], the “Theoretical % by weight of Fe in solution” value in data set [1] (pH 7, 5 weeks stirring) amounted to 3.35 % by weight. Moreover, the “% by weight of Fe in solution measured” value in data set [1] (pH 7, stirred 5 weeks at ambient temperature without protection from light) is recorded as 3.2 % by weight. For the same compound, the “state of the solution after 24 hours under stirring” value is “still homogeneous, without any solid” in data set [2] (0.025 mole MgCl2) and “still homogeneous, without any solid” in data set [2] (0.05 mole MgCl2).

For the compound `O=C([O-])C(O)c1ccccc1O.[Na+]` (stereo not shown) [OHMNa, sodium salt of 2-(2-hydroxyphenyl)-2-hydroxyacetic acid], the “% by weight measured (Fe in solution)” value in data set [1] (OHMNa, pH 6) is on record as 1.7 % by weight; in data set [1] (OHMNa, pH 7), 2.3 % by weight; in data set [1] (OHMNa, pH 9) it was 1.9 % by weight; in data set [1] (OHMNa, pH 10), 2.7 % by weight; in data set [1] (OHMNa, pH 12), 1.9 % by weight. The “Theoretical % by weight of Fe in solution” value is 2.18 % by weight in data set [1] (OHMNa, pH 6); 2.33 % by weight in data set [1] (OHMNa, pH 7); 1.96 % by weight in data set [1] (OHMNa, pH 9); 2.80 % by weight in data set [1] (OHMNa, pH 10); 1.92 % by weight in data set [1] (OHMNa, pH 12); 1.59 % by weight in data set [1] (pH 7, in the presence of CaCO3). In data set [1] (setting [10]), the “Theoretical % by weight of Fe in solution” value is 2.33 % by weight. Also, the “% by weight of Fe in solution measured” value is 1.4 % by weight in data set [1] (pH 7, in the presence of CaCO3 (0.01 mol), 24 hours) and 2.3 % by weight in data set [1] (setting [9]). Also, the entries for the “Theoretical % by weight of metal in solution” value in data set [3] (pH 7), in data set [4] (pH 7) and in data set [5] (pH 7) were 1 % by weight, 1.83 % by weight and 1.43 % by weight, respectively. The “% by weight measured (metal in solution)” value was determined as 1 % by weight in data set [3] (pH 7, 24 h); 1.40 % by weight in data set [4] (pH 7, 24 h); 1.40 % by weight in data set [5] (pH 7, 24 h).

For `O=C(O)C(NCCNC(C(=O)O)c1ccccc1O)c1ccccc1[O-].[Fe].[Na+]` (stereo not shown) [[Fe(o,o-EDDHA)Na]], in data set [6], the “% by weight of iron in the powder” value is given as 7.8 % by weight. Also, the “level of iron of commercial chelates” value in data set [7] is given as around 6 % by weight. Further, in data set [8], the solubility in water is listed as 150-300 g/l of water.

As to `O.O.O.O.O.O.[Cl-].[Cl-].[Cl-].[Fe+3]` [compound 1, FeCl3 hexahydrate, reference compound], the “Fe measured in the filtrate” value in data set [1] (FeCl3 hexahydrate without ligand, pH 7) was “less than 10 ppm”.

For `O=C(O)Cc1ccccc1O` [compound 2, reference compound], in data set [1] (setting [11]), the “% by weight measured (Fe in solution)” value is listed as below 0.0025 % by weight and the “Theoretical % by weight of Fe in solution” value worked out at 2.88 % by weight. Moreover, in data set [1] (setting [12]), the “% by weight measured (Fe in solution)” value is 0.01 % by weight and the “Theoretical % by weight of Fe in solution” value came to 1.67 % by weight. Besides, in data set [1] (pH 7), the “dissolution of iron in aqueous solution at pH 7 (in words)” value (shortened to “dissolution of iron in aqueous solution”) was “do not make possible or make possible only to a very slight extent the dissolution of iron”.

Consider `O=C(O)C(=O)c1ccccc1O` [compound 3, reference compound], for which, in data set [1] (setting [11]), the “% by weight measured (Fe in solution)” value is listed as 0.5 % by weight and the “Theoretical % by weight of Fe in solution” value is listed as 4.09 % by weight. Moreover, the “dissolution of iron in aqueous solution” value in data set [1] (pH 7) is on record as “do not make possible or make possible only to a very slight extent the dissolution of iron”.

With `O=C(O)C(O)c1ccccc1` (stereo not shown) [compound 4, reference compound], in data set [1] (setting [11]), the “% by weight measured (Fe in solution)” value is listed as 0.09 % by weight and the “Theoretical % by weight of Fe in solution” value came to 2.38 % by weight. For the same compound, the “dissolution of iron in aqueous solution” value in data set [1] (pH 7) is on record as “do not make possible or make possible only to a very slight extent the dissolution of iron”.

`O=C(O)C(O)c1ccccc1Cl` (stereo not shown) [compound 5, reference compound]: in data set [1] (setting [11]), the “% by weight measured (Fe in solution)” value was 0.01 % by weight and the “Theoretical % by weight of Fe in solution” value is recorded as 4.73 % by weight. For the same compound, the “dissolution of iron in aqueous solution” value in data set [1] (pH 7) is listed as “do not make possible or make possible only to a very slight extent the dissolution of iron”.
